Laboratory results from patent publication US20190185479A1, “BICYCLIC NITROGENATED HETEROCYCLIC COMPOUND” (MITSUBISHI TANABE PHARMA CORPORATION, priority 2016, published 2019).

The compounds below were run against T1, Human PDE7B (hPDE7B) (Homo sapiens, UniProt Q9NP56) (assay: Measurement of PDE7 inhibitory activity (Experimental Example 1; residual cAMP, LANCE Ultra cAMP TR-FRET)). Details: cAMP 3 nmol/L, room temperature 60 minutes.
T1 construct: made in house; host or cells: COS-7 cells
Format: biochemical
Experimental: Human PDE7B (hPDE7B) was isolated from COS-7 cells transfected with plasmids encoding hPDE7B according to the method described in a reference, Biochemical and Biophysical Research Communication, 271, p. 575-583 (2000). The resulting enzyme solution was used in the PDE assay.
PDE7 inhibitory assay was carried out by reacting the mixture of a compound, hPDE7B, and cAMP, and measuring the residual cAMP by a detection method using LANCE (registered trademark) Ultra cAMP Detection Kit (ParkinElmer). The compound was dissolved in DMSO, and diluted so that the concentration would become 50 times of the final concentration. The hPDE7B and cAMP were diluted with an assay buffer (50 mmol/L Tris-HCl, 1 mmol/L MgCl2, 0.1% BSA, 0.5 mmol/L DTT, pH7.5) so that the hPDE7B would have an appropriate enzyme activity and the concentration of cAMP would become 6 nmol/L. To a 96 well plate were added the compound (2 μL) (DMSO final concentration: 2%), hPDE7B (48 μL), and cAMP (50 μL) (concentration at the reaction: 3 nmol/L), and the resulting mixture was reacted at room temperature for 60 minutes. The reaction solution (20 μL) was subjected to a TR-FRET method according to the protocol specified by the kit to measure the concentration of the residual cAMP. In the assay, to a tracer solution specified by the kit was added 0.5 mmol/L of 3-isobutyl-1-methylxanthine (IBMX, nonselective PDE inhibitor) in order to stop the PDE enzyme reaction after the completion of reaction until the measurement.
The reaction without a compound was defined as “0% inhibition”, the reaction without hPDE7B was defined as “100% inhibition”, and the inhibition rate of the compound was calculated by the following equation.
Inhibition rate of compound (%)={(Residual cAMP concentration at the addition of compound−Residual cAMP concentration in 0% inhibition)/(Residual cAMP concentration in 100% inhibition−Residual cAMP concentration in 0% inhibition)}×100

T1 sequence (Q9NP56 whole entry): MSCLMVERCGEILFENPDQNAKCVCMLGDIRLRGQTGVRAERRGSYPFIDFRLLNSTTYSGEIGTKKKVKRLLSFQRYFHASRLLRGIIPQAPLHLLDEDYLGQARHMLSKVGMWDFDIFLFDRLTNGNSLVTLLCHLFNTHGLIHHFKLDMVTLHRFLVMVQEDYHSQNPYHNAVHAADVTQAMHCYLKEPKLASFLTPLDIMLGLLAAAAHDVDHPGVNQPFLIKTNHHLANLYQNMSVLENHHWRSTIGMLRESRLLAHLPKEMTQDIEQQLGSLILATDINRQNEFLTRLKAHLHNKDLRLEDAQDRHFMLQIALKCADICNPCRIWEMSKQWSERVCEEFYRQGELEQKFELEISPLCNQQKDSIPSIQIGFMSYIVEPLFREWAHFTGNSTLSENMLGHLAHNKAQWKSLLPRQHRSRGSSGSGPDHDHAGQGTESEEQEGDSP

IC50 [nM] | SMILES
460 | Nc1ncnc2c1nnn2C1CCc2ccccc2C1 (centres unmarked) [Example 34]
310 | CC1CCN(c2nnc3c(N)nccn23)CC1C (single isomer, unassigned) [Example 229, 3-(3,4-dimethylpiperidin-1-yl) [1,2,4]triazolo[4,3-a]pyrazin-8-amine]
430 | CC1CCCCC1n1nnc2c(N)ncnc21 (single isomer, unassigned) [Example 193, 3-(trans-2-methylcyclohexyl)-3H-[1,2,3]triazolo[4,5-d]pyrimidin-7-amine]
80 | CC1CCCC(n2nnc3c(N)ncnc32)C1 (racemic) [Example 98, 3-(cis-3-methylcyclohexyl)-3H-[1,2,3]triazolo[4,5-d]pyrimidin-7-amine]
629 | CC1CCC(F)(F)CC1c1nnc2c(N)ncnn12 (single isomer, unassigned) [Example 247, 3-(cis-5,5-difluoro-2-methylcyclohexyl) [1,2,4]triazolo[3,4-f][1,2,4]triazin-8-amine]
70 | Nc1nccn2c(C3CCC4CC4C3)nnc12 (centres unmarked) [Example 158, 3-(bicyclo[4.1.0]hept-3-yl) [1,2,4]triazolo[4,3-a]pyrazin-8-amine]
90 | CC1CC(c2nnc3c(N)nccn23)CC(F)(F)C1 (racemic) [Example 155, 3-(trans-3,3-difluoro-5-methylcyclohexyl[1,2,4]triazolo[4,3-a]pyrazin-8-amine]
350 | C[C@@H](c1ccc(F)cc1)n1nnc2c(N)ncnc21 [Example 16]
50 | Nc1ncnc2c1nnn2C1CCCCC1F (racemic) [Example 97, 3-(cis-2-fluorocyclohexyl)-3H-[1,2,3]triazolo[4,5-d]pyrimidin-7-amine]
110 | CC1CC(c2nnc3c(N)nccn23)CC(F)(F)C1 (centres unmarked) [Example 154]
620 | COC(=O)N1CCCCC1c1nnc2c(N)nccn12 (racemic) [Example 251, methyl 2-(8-amino-[1,2,4]triazolo[4,3-a]pyrazin-3-yl)-piperidine-1-carboxylate]
160 | CC1CC(c2nnc3c(N)nccn23)C1 (centres unmarked) [Example 133, 3-(3-methylcyclobutyl)-[1,2,4]triazolo[4,3-a]pyrazin-8-amine]
920 | Nc1nccn2c(C3CC(C(F)(F)F)CC(F)(F)C3)nnc12 (centres unmarked) [Example 157]
20 | CC1CC(C)CN(c2nnc3c(N)nccn23)C1 (racemic) [Example 53, 3-[trans-3,5-dimethylpiperidin-1-yl][1,2,4]triazolo[4,3-a]pyrazin-8-amine]
40 | CCC1CCCCN1c1nnc2c(N)nccn12 (racemic) [Example 23, 3-(2-ethylpiperidin-1-yl) [1,2,4]triazolo[4,3-a]pyrazin-8-amine]
50 | C[C@H]1CCC[C@H](c2nnc3c(N)nccn23)C1 (racemic) [Example 143, 3-(trans-3-methylcyclohexyl) [1,2,4]triazolo[4,3-a]pyrazin-8-amine]
380 | CC1(C)CCCCN1c1nnc2c(N)nccn12 [Example 36, 3-(2,2-dimethylpiperidin-1-yl)-[1,2,4]triazolo[4,3-a]pyrazin-8-amine]
670 | CC(C)[C@@H]1CC[C@@H](C)[C@@H](n2nnc3c(N)ncnc32)C1 [Example 132, 3-[(1S,2R,5R)-2-methyl-5-(propan-2-yl)cyclohexyl]-3H-[1,2,3]triazolo[4,5-d]pyrimidin-7-amine]
1 | CC1(C)CCCC(c2nnc3c(N)ncnn23)C1 (racemic) [Example 73, 3-(3,3-dimethylcyclohexyl) [1,2,4]triazolo[3,4-f][1,2,4]triazin-8-amine]

IC50 [nM] | SMILES
10 | CC1CCCCC1c1nnc2c(N)ncnn12 (single isomer, unassigned) [Example 69, 3-(cis-2-methylcyclohexyl) [1,2,4]triazolo[3,4-f][1,2,4]triazin-8-amine]
170 | Nc1ncnc2c1nnn2C1CCCCC1F (centres unmarked) [Example 112]
120 | CC1(C)CCCC(c2nnc3c(N)ncnn23)C1 (single isomer, unassigned) [Example 243, 3-(3,3-dimethylcyclohexyl) [1,2,4]triazolo[3,4-f][1,2,4]triazin-8-amine]
170 | Nc1nccn2c(N3CCCC(C(F)(F)F)C3)nnc12 (single isomer, unassigned) [Example 224]
20 | Nc1ncnc2c1nnn2C1CCCC(C(F)F)C1 (centres unmarked) [Example 119]
620 | CC(C)(C)OC(=O)N1CCC[C@@H](n2nnc3c(N)ncnc32)C1 [Example 12, tert-butyl (3R)-3-(7-amino-3H-[1,2,3]triazolo[4,5-d]pyrimidin-3-yl)piperidine-1-carboxylate]
310 | Nc1nccn2c(C3CCc4ccccc4C3)nnc12 (racemic) [Example 77, 3-(1,2,3,4-tetrahydronaphthalen-2-yl)-[1,2,4]triazolo[4,3-a]pyrazin-8-amine]
30 | Nc1ncnc2c1nnn2C1CCCCC1(F)F (racemic) [Example 113, 3-(2,2-difluorocyclohexyl)-3H-[1,2,3]triazolo[4,5-d]pyrimidin-7-amine]
540 | CC1CCN(c2nnc3c(N)nccn23)CC1C (single isomer, unassigned) [Example 228, 3-(3,4-dimethylpiperidin-1-yl) [1,2,4]triazolo[4,3-a]pyrazin-8-amine]
110 | Nc1nccn2c(C3CCC4CC4C3)nnc12 (single isomer, unassigned) [Example 220, 3-(bicyclo[4.1.0]hept-3-yl) [1,2,4]triazolo[4,3-a]pyrazin-8-amine]
30 | Nc1nccn2c(C3CCCC4(CC4)C3)nnc12 (racemic) [Example 145, 3-(spiro[2,5]oct-5-yl) [1,2,4]triazolo[4,3-a]pyrazin-8-amine]
> 1000 | CC1(C)CC(c2nnc3c(N)nccn23)CC(F)(F)C1 (single isomer, unassigned) [Example 178, 3-(3,3-difluoro-5,5-dimethylcyclohexyl) [1,2,4]triazolo[4,3-a]pyrazin-8-amine]
240 | C=C1CC(c2nnc3c(N)nccn23)C1 [Example 19, 3-(3-methylenecyclobutyl)-[1,2,4]triazolo[4,3-a]pyrazin-8-amine]
400 | CC(C)(C)OC(=O)N1CCCC(n2nnc3c(N)ncnc32)C1 (centres unmarked) [Example 11]
< 10 | CC1CCC(C)(C)CN1c1nnc2c(N)nccn12 (racemic) [Example 65, 3-(2,5,5-trimethylpiperidin-1-yl) [1,2,4]triazolo[4,3-a]pyrazin-8-amine]
310 | C[C@@H]1C[C@H](C)C[C@@H](n2nnc3c(N)ncnc32)C1 [Example 105]
730 | Nc1nccn2c(N3CCCCC3Cc3ccccc3)nnc12 (centres unmarked) [Example 40]
> 1000 | C=C(C)[C@H]1CC[C@H](C)C(n2nnc3c(N)ncnc32)C1 (stereo in doubt) [Example 107, 3-[(1R,2S,5S)-2-methyl-5-(prop-1-en-2-yl)cyclohexyl]-3H-[1,2,3]triazolo[4,5-d]pyrimidin-7-amine]
> 1000 | Nc1nccn2c(C3CCCC(C(F)(F)F)C3)nnc12 (single isomer, unassigned) [Example 211, 3-[cis-3-(trifluoromethyl)cyclohexyl][1,2,4]triazolo[4,3-a]pyrazin-8-amine]

Same assay, conditions: compound at 1 μmol/L

inhibition at 1 µM [%] | SMILES
33 | CC1(C)CC(c2nnc3c(N)nccn23)CC(F)(F)C1 (single isomer, unassigned) [Example 178, 3-(3,3-difluoro-5,5-dimethylcyclohexyl) [1,2,4]triazolo[4,3-a]pyrazin-8-amine]
35 | C=C(C)[C@H]1CC[C@H](C)C(n2nnc3c(N)ncnc32)C1 (stereo in doubt) [Example 107, 3-[(1R,2S,5S)-2-methyl-5-(prop-1-en-2-yl)cyclohexyl]-3H-[1,2,3]triazolo[4,5-d]pyrimidin-7-amine]
20 | Nc1nccn2c(C3CCCC(C(F)(F)F)C3)nnc12 (single isomer, unassigned) [Example 211, 3-[cis-3-(trifluoromethyl)cyclohexyl][1,2,4]triazolo[4,3-a]pyrazin-8-amine]
